# B1: recombinant human macrophage colony-stimulating factor (protein, UniProt P09603 33-554, looked up)
# Macrophage colony-stimulating …: EEVSEYCSHMIGSGHLQSLQRLIDSQMETSCQITFEFVDQEQLKDPVCYLKKAFLLVQDIMEDTMRFRDNTPNAIAIVQLQELSLRLKSCFTKDYEEHDKACVRTFYETPLQLLEKVKNVFNETKNLLDKDWNIFSKNCNNSFAECSSQDVVTKPDCNCLYPKAIPSSDPASVSPHQPLAPSMAPVAGLTWEDSEGTEGSSLLPGEQPLHTVDPGSAKQRPPRSTCQSFEPPETPVVKDSTIGGSPQPRPSVGAFNPGMEDILDSAMGTNWVPEEASGEASEIPVPQGTELSPSRPGGGSMQTEPARPSNFLSASSPLPASAKGQQPADVTGTALPRVGPVRPTGQDWNHTPQKTDHPSALLRDPPEPGSPRISSLRPQGLSNPSTLSAQPQLSRSHSSGSVLPLGELEGRRSTRDRRSPAEPEGGPASEGAARPLPRFNSVPLTDTGHERQSEGSFSPQLQESVFHLLVPSVILVLLAVGGLLFYRWRRRSHQEPQRADSPLEQPEGSPLTQDDRQVELPV
# notes: growth factor additive from Sino Biological
# B2: human interleukin-10 (protein, UniProt P22301 19-178, looked up)
# Interleukin-10: SPGQGTQSENSCTHFPGNLPNMLRDLRDAFSRVKTFFQMKDQLDNLLLKESLLEDFKGYLGCQALSEMIQFYLEEVMPQAENQDPDIKAHVNSLGENLKTLRLRLRRCHRFLPCENKSKAVEQVKNAFNKLQEKGIYKAMSEFDIFINYIEAYMTMKIRN
# notes: cytokine additive from Sino Biological
# B3: human interleukin-11 (protein, UniProt P20809 22-199, looked up)
# Interleukin-11: PGPPPGPPRVSPDPRAELDSTVLLTRSLLADTRQLAAQLRDKFPADGDHNLDSLPTLAMSAGALGALQLPGVLTRLRADLLSYLRHVQWLRRAGGSSLKTLEPELGTLQARLDRLLRRLQLLMSRLALPQPPPDPPAPPLAPPSSAWGGIRAAHAILGGLHLTLDWAVRGLLLLKTRL
# notes: as for B2
# B4: human interleukin-4 (protein, UniProt P05112 25-153, looked up)
# Interleukin-4: HKCDITLQEIIKTLNSLTEQKTLCTELTVTDIFAASKNTTEKETFCRAATVLRQFYSHHEKDTRCLGATAQQFHRHKQLIRFLKRLDRNLWGLAGLNSCPVKEANQSTLENFLERLKTIMREKYSKCSS
# notes: as for B2
# B5: human interleukin-22 (protein, UniProt Q9GZX6 34-179, looked up)
# Interleukin-22: APISSHCRLDKSNFQQPYITNRTFMLAKEASLADNNTDVRLIGEKLFHGVSMSERCYLMKQVLNFTLEEVLFPQSDRFQPYMQEVVPFLARLSNRLSTCHIEGDDLHIQRNVQKLKDTVKKLGESGEIKAIGELDLLFMSLRNACI
# notes: cytokine additive from Peprotech
# B6: human granulocyte colony stimulating factor (protein, UniProt P09919 31-207, looked up)
# Granulocyte …: TPLGPASSLPQSFLLKCLEQVRKIQGDGAALQEKLVSECATYKLCHPEELVLLGHSLGIPWAPLSSCPSQALQLAGCLSQLHSGLFLYQGLLQALEGISPELGPTLDTLQLDVADFATTIWQQMEELGMAPALQPTQGAMPAFASAFQRRAGGVLVASHLQSFLEVSYRVLRHLAQP
# notes: as for B1
# B7: recombinant human FLT3 Ligand (protein, UniProt P49771 27-235, looked up)
# Fms-related tyrosine kinase 3 …: TQDCSFQHSPISSDFAVKIRELSDYLLQDYPVTVASNLQDEELCGGLWRLVLAQRWMERLKTVAGSKMQGLLERVNTEIHFVTKCAFQPPPSCLRFVQTNISRLLQETSEQLVALKPWITRQNFSRCLELQCQPDSSTLPPPWSPRPLEATAPTAPQPPLLLLLLLPVGLLLLAAAWCLHWQRTRRRTPRPGEQVPPVPSPQDLLLVEH
# notes: as for B1
# Tests used:
# Type in all cases: cell-based
# [1] = system: human primary acute myeloid leukemia cells; assay: Effect of single added factors in Basal Medium on proliferation (CCK-8); details: additive at the listed final concentration in Basal Medium; samples A17007, A25104; 5 to 8 days; CCK-8, 450 nm; versus Basal Medium
# Method: First, the Basal Medium was prepared. The formulation of the Basal Medium was monocyte serum-free medium (purchased from BI, 05-080-1A)+10% (v/v) fetal bovine serum (purchased from ExCell Bio, FND500)+100 μg/mL Primocin (purchased from InvivoGen, 0.2% (v/v), the commercial product concentration is 50 mg/mL).
# Different types of growth factors (see Table 1) were added to the Basal Medium to prepare culture mediums for human primary acute myeloid leukemia cells containing different added components.
# The culture mediums of different compositions in Table 1 were added into a 96-well plate in a volume of 100 μL/well. Human primary acute myeloid leukemia cells isolated from two cases of human primary acute myeloid leukemia bone marrow samples (numbered A17007, A25104, from the First Affiliated Hospital of Anhui Medical University) according to the above step (2) were inoculated in the 96-well culture plate at a density of 1×10^4 cells/well and cultured at 37° C. and 5% […]. After 5 to 8 days of culture, the cells grew to 70% to 85%, and 10 μL of Cell Counting Kit-8 (CCK-8, purchased from MCE) was added to each well and incubated at 37° C. and 5% CO2 for 2 to 4 hours. The substances in each well were mixed, and the plate was read using a multifunctional microplate reader (Multi-Mode Detection Platform, American Molecular Instruments (Shanghai) Co., Ltd.) at 450 nm. The Basal Medium without addition of any additive was used as a control.
# [2] = system: human primary acute myeloid leukemia cells; assay: Effect of combinations of added factors on proliferation (viable cell counting, FIG. 1); details: six bone marrow samples
# Method: The culture mediums for human primary acute myeloid leukemia cells containing different combinations of added factors were prepared according to the components in Table 2, to investigate the proliferation-promoting effects of different added factor combinations on human primary acute myeloid leukemia cells.
# Human primary acute myeloid leukemia cells were obtained from human primary acute myeloid leukemia bone marrow samples (numbered A17151, A17152, A20090, A20101, A21004, A20141) according to the process of step (2)-3 of Example 1. The obtained cell suspension was divided into 11 equal parts, which were then centrifuged at 1500 rpm for 4 minutes. After centrifugation, the cells were resuspended with 200 μL BM or No. 1 to 10 culture medium, respectively, and inoculated into a 48-well plate at a viable cell density of 2×10^4 cells/well (20,000 cells per well). Each well in the 48-well plate was supplemented to a volume of 1 mL with the corresponding culture mediums, and the resultant was fully mixed. After surface disinfection, the plate was placed in a 37° C., 5% CO2 incubator (purchased from Thermo Fisher) for culture.
# The cells in the 48-well plate grew to more than 85% and were transferred to a 15 mL centrifuge tube which was then centrifuged at 1500 rpm for 5 minutes. 500 μL of monocyte serum-free medium was added to the centrifuge tube to resuspend the cell pellet. 12 μL of the resuspended cell suspension was fully mixed with 12 μL of trypan blue dye (Sangon Biotech (Shanghai) Co., Ltd.), and then 20 μL of the mixture was added into a cell counting plate (Countstar, specifications: 50 pieces/box). The percentage of viable large cells (cell size>10 μm) were calculated using a cell counter (Countstar, IC1000) (percentage of viable large cells (cell size>10 μm)=number of viable cells/total number of cells*100%). The results obtained from human primary acute myeloid leukemia cells of bone marrow samples A17151, A17152, A20090, A20101, A21004, and A20141 are shown in FIG. 1.
# [3] = system: human primary acute myeloid leukemia cells; assay: Proliferative effects of different concentrations of added factors (ratio to Blank Control, FIGS. 2A-2H); details: for concentration at which the cell proliferation effect is most significant: five concentrations tested; for proliferation-promoting effect of the factor: samples A23065, A17112, factor added back to formulation lacking it
# Method: Human primary acute myeloid leukemia cells were obtained from human primary acute myeloid leukemia bone marrow samples (numbered A23065, A17112) according to the process of step (2)-3 of Example 1. The cells were resuspended with Basal Medium (monocyte serum-free medium+10% (v/v) fetal bovine serum+100 μg/mL Primocin) for later use.
# 20 μl of cell suspension containing 4×10^4 cells was added to each well, and the suspension was diluted with 1 mL medium of the above Formulations 1-8, respectively.
# (§1) When using the culture medium of Formulation 1, the prepared glutamine additive was added respectively to a 48-well plate inoculated with primary cells, with 1 mL per well, and the final concentration of glutamine additive was 0.5 mM, 1 mM, 2 mM, 4 mM, 8 mM, respectively; a well of Blank Control (BC) was set using the culture medium of Formulation 1.
# as §1, with “2,” for “1,”, “human SCF” for “glutamine additive”, “was” for “was 0.5 mM,”, “ng/mL, 3 ng/mL, 9 ng/mL, 27 ng/mL, 81 ng/mL,” for “mM, 2 mM, 4 mM, 8 mM,”, “2.” for “1.”
# as §1, with “5,” for “1,”, “human FLT3L” for “glutamine additive”, “was” for “was 0.5 mM,”, “ng/mL, 3 ng/mL, 9 ng/mL, 27 ng/mL, 81 ng/mL,” for “mM, 2 mM, 4 mM, 8 mM,”, “5.” for “1.”
# When using the culture medium of Formulation 6, the prepared non-essential amino acids were added respectively to a 48-well plate inoculated with primary cells, with 1 mL per well, and the final concentration of non-essential amino acids was 12.5 µM, 25 µM, 50 µM, 100 µM, 200 µM, respectively; a well of Blank Control (BC) was set using the culture medium of Formulation 6.
# as §1, with “8,” for “1,”, “human M-CSF” for “glutamine additive”, “was” for “was 0.5 mM,”, “ng/mL, 3 ng/mL, 9 ng/mL, 27 ng/mL, 81 ng/mL,” for “mM, 2 mM, 4 mM, 8 mM,”, “8.” for “1.”
# In FIGS. 2A to 2H, the ratio is a ratio of the number of cells of the first passage cultured by using each culture medium to the number of cells of the first passage cultured in the corresponding well of Blank Control.
Molecule,Level of promoting cell proliferation [1],proliferation-promoting effect of the factor (omission from No. 1 medium) [2],concentration at which the cell proliferation effect is most significant [3] [ng/mL],proliferation-promoting effect of the factor [3]
"C[C@@H](N)[C@H]1CC[C@H](C(=O)Nc2ccncc2)CC1 [Y-27632, reference compound]",−,,,
human interleukin-5 [human IL-5],−,,,
human interleukin-6 [human IL-6],+,significantly promote the proliferation,5.67,significant proliferation-promoting effect
human interleukin-7 [human IL-7],+,significantly promote the proliferation,17,significant proliferation-promoting effect
human leukocyte interferon [human IFN-α],+,,,
human stem cell factor [human SCF],+,significantly promote the proliferation,9,significant proliferation-promoting effect
human thrombopoietin [human TPO],−,,,
B1,+,significantly promote the proliferation,27,significant proliferation-promoting effect
B2,−,,,
B3,−,,,
B4,−,,,
B5,−,,,
B6,−,,,
B7,+,significantly promote the proliferation,27,significant proliferation-promoting effect

# Source: patent US20240344035A1, “Culture Medium and Culture Method for Human Primary Acute Myeloid Leukemia Cells” (PRECEDO PHARMACEUTICALS CO., LTD, priority 2021, published 2024)
